The text below walks through data of patent publication US12667087B2, “Methods of treatment with aminolevulinic acid synthase 2 (ALAS2) modulators” (Agios Pharmaceuticals, Inc., priority 2019, dated 2026).

Broadly, the IC50 is the concentration that inhibits the measured activity by half.

In the first experiment the target is T1, wild type ALAS2 (Homo sapiens, UniProt P22557).
T1 construct: MBP (TEV-cleavable) (C, cleaved yes); made in house; host or cells: E. coli
T1 sequence (P22557 79-587): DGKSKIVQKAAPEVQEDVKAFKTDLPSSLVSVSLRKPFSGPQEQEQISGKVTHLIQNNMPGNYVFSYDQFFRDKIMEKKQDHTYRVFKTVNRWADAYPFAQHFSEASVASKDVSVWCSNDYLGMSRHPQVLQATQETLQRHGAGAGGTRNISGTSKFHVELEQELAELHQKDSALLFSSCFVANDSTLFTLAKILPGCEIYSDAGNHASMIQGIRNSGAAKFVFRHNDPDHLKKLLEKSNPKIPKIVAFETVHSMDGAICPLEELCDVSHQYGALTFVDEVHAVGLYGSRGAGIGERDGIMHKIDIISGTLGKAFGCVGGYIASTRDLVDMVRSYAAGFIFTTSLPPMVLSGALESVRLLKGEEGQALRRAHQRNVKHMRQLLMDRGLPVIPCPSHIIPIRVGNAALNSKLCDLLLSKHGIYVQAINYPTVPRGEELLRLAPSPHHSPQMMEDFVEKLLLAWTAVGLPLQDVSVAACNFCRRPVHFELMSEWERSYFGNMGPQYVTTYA
Description: General IC50 assay, version 1 (5 ug/mL ALAS2), ALA by mass spectrometry. The format is biochemical. Particulars: version 1 assay: 5 ug/mL ALAS2, 0 uM PLP, 1 h reaction. As to the method:
(§1) The exemplified compounds in Table I were tested in vitro against the wild type ALAS2. As described in Example 38, two concentrations of ALAS2 were used: 5 ug/mL ALAS2 (for the version I assay) and 2 ug/mL (for the version 2 assay). “A” refers to an IC50 less than 10.0 μM; “B” refers to an IC50 from 10.0 μM to 50.0 μM; and “C” refers to an AC50 greater than 50.0 μM.
(§2) ALAS2 sequence (see FIG. 8) (residues 79-587) was expressed in E. coli as a TEV cleavable C-terminally MBP tagged construct. Purification steps included an amylose column, followed by MBP tag cleavage and passage through a Ni-NTA column to remove cleaved MBP. ALAS2 was further purified and exchanged into storage buffer (50 mM Tris, 500 mM NaCl, 1 mM DTT, 10 μM PLP, pH 8.0) by size exclusion through a Superdex 200 column and stored at −80° C.
(§3) Preparation of stock solutions: All solutions were prepared by standard methods with the exception of glycine and succinyl CoA. A 1 M solution of glycine was prepared and the pH adjusted to 8.0 by addition of […]. A 1 mM solution of succinyl CoA was prepared in 20 mM phosphoric acid, pH 2.0 to ensure its stability to hydrolysis.
(§4) Routine compound testing for IC50 measurements: Assays were carried out in 96-well V-bottom polypropylene plates (Greiner-Bio cat. no. 651201) at room temperature. Test compound dilution series and DMSO blanks (1 μL) were dispensed into the 96-well plates. A solution of 1.1× assay mix was prepared to contain, in the final 1× assay conditions: 5 μg/mL ALAS2 (for the version 1 assay) or 2 ug/mL (for the version 2 assay), 20 mM sodium phosphate pH 8.0, 3.5 mM glycine, 1 mM MgCl2, 30 mM NaCl, 0.03% BSA, 1 mM EDTA. Assay mix (45 μL) was added to each well, and compound and assay mix were pre-incubated for 1 h at room temperature. Assays were then initiated by addition of 5 μL 1 mM succinyl CoA to each well to give a final concentration of 100 μM. Reactions proceeded for 1 h (version 1 assay) or 2 h (version 2 assay) at room temperature, then were quenched by addition of 200 μL acetonitrile containing 1% formic acid and 0.2 μg/mL ^13C, ^15N aminolevulinic acid (ALA) as an internal standard. The plates were centrifuged at 4° C. for 1 min at 3500 rpm, then 200 μL of supernatant was transferred to a fresh 96-well plate for detection of ALA by high throughput mass spectrometry.
(§5) Measurement of ALA concentration by high throughput mass spectrometry: ALA was monitored in positive mode on a Sciex QTRAP 6500 connected to a Shimadzu 20AD LC using the conditions outlined in the table below. Samples were transferred from the assay plate and loaded onto a ZIC HILIC Trap column (Optimize Technologies, 4 μL, 10 μM) at a flow rate of 1.2 mL/min in 99% acetonitrile, 1% ddH2O containing 0.5% formic acid to remove nonvolatile components with a 6 s desalt cycle. Analytes were eluted with 95% acetonitrile, 5% ddH2O containing 0.5% formic acid in 12 s elution cycles. Concentrations of ALA in each sample were measured by comparison to an authentic standard curve, and IC50s were determined by fitting to the log(compound) vs. response equation Y=bottom+(top−bottom)/(1+10^((log IC50-X)*HillSlope)).
With `CN(N)c1snnc1-c1ccccc1` [Compound 16], the “IC50 (uM) ALAS2 v1; 0 uM PLP” value is listed as “No Fit”.
Regarding `CC(C)N(N)c1nnn[nH]1` [Compound 62], the “IC50 (uM) ALAS2 v1; 0 uM PLP” value is listed as “No Fit”.

The same experiment, now with this note: version 1 assay: 5 ug/mL ALAS2, 0 uM PLP, 1 h reaction; read-out: IC50 (uM) ALAS2 v1; 0 uM PLP.
In the case of `NNc1nc(-c2ccccn2)no1` [Compound 6], the IC50 was in the range of 10 to 50 µM.
For the compound `NNc1cc(-c2ccncc2)[nH]n1` [Compound 7], the IC50 is 10 to 50 µM.
On the same count and under the same terms, with `NNc1nc(-c2ccc(F)cc2)no1` [Compound 8] the figure was 10 to 50 µM.
The same measure, in the same setting: with `NNc1cc(-c2ccccc2)[nH]n1` [Compound 9] the figure was 10 to 50 µM; with `NNc1ccn(-c2ccccc2)n1` [Compound 10], 10 to 50 µM.
Same read-out and setting: then `Cc1ccccc1-c1nnc(NN)[nH]1` [Compound 11], with < 10 µM; and `NNc1nnc(C2CCC2)[nH]1` [Compound 12], with > 50 µM; and `CCCc1nnc(NN)[nH]1` [Compound 13], with 10 to 50 µM.
For `NNc1nc(N2CCOCC2)n[nH]1` [Compound 14], the IC50 is 10 to 50 µM.
As for `NNc1nnnn1-c1ccccc1` [Compound 15], the IC50 is > 50 µM.
Still for that read-out and setting: with `NNc1nc(-c2ccc(N)cc2)cs1` [Compound 17] the figure was > 50 µM; with `NNc1nc(-c2ccco2)cs1` [Compound 18], > 50 µM; with `NNc1nc(-c2cccnc2)no1` [Compound 19], < 10 µM.
On the same count and under the same terms, then `NNc1nc(-c2ccncc2)no1` [Compound 20], with < 10 µM; and `NNc1nc(-c2ccccc2)no1` [Compound 21], with < 10 µM; and `NNc1nnc(-c2ccccn2)s1` [Compound 22], with < 10 µM.
Regarding `NNc1nc(C(F)(F)F)cs1` [Compound 23], the IC50 was > 50 µM.
On the same count and under the same terms, then `COc1ccc(-c2nnc(NN)s2)cc1` [Compound 24], with 10 to 50 µM; and `NNc1nnc(C2CC2)s1` [Compound 25], with > 50 µM.
With `NNc1nc(-c2ccccc2)cs1` [Compound 26], the IC50 is > 50 µM.
Same read-out and setting: with `NNc1nnc(-c2ccccc2)s1` [Compound 27] the figure was < 10 µM.
On the same count and under the same terms, then `NNc1cc(C(F)(F)F)n[nH]1` [Compound 28], with 10 to 50 µM.
On to `NNc1nnc(C(F)(F)F)s1` [Compound 29], for which the IC50 was < 10 µM.
On the same count and under the same terms, with `Cn1c(NN)nnc1-c1ccccc1` [Compound 30] the figure was > 50 µM; with `NNc1ccn(CC(F)(F)F)n1` [Compound 31], > 50 µM; with `CC(C)n1ccc(NN)n1` [Compound 32], < 10 µM.
Same read-out and setting: with `NNc1ccn(CC(F)F)n1` [Compound 33] the figure was 10 to 50 µM; with `NNc1nnc(-c2ccccc2)[nH]1` [Compound 34], < 10 µM; with `NNc1ccn(CC(=O)O)n1` [Compound 35], < 10 µM.
On to `CN(N)c1nnc(C(F)(F)F)[nH]1` [Compound 36], for which the IC50 was < 10 µM.
Same read-out and setting: with `CN(N)c1n[nH]nc1C(F)(F)F` [Compound 37] the figure was 10 to 50 µM.
For the compound `CCN(N)c1noc(=O)[nH]1` [Compound 38], the IC50 was < 10 µM.
The same measure, in the same setting: then `NNc1n[nH]nc1C(F)(F)F` [Compound 39], with < 10 µM; and `Cc1cnc(NN)s1` [Compound 40], with < 10 µM; and `COCc1cnc(NN)s1` [Compound 41], with > 50 µM.
Take `Cc1csc(NN)n1` [Compound 42]: the IC50 was > 50 µM.
For `CN(N)c1n[nH]c(=O)[nH]1` [Compound 43], the half-maximal inhibitory concentration (IC50) is < 10 µM.
Same read-out and setting: then `NNc1nnc(C(F)(F)F)[nH]1` [Compound 44], with < 10 µM.
Still for that read-out and setting: with `CN(N)c1noc(=O)[nH]1` [Compound 45] the figure was < 10 µM.
Still for that read-out and setting: with `CCOC(=O)c1[nH]cnc1NN` [Compound 46] the figure was < 10 µM.
Take `NNc1nnco1` [Compound 47]: the IC50 was > 50 µM.
Still for that read-out and setting: then `N#Cc1cnc(NN)s1` [Compound 48], with 10 to 50 µM; and `NNc1ncc(C(=O)O)s1` [Compound 49], with > 50 µM; and `NNc1nnc(O)[nH]1` [Compound 50], with > 50 µM.
In the case of `COCc1cnc(N(N)C(=O)C(F)(F)F)s1` [Compound 51], the IC50 is > 50 µM.
Regarding `Cc1nc(C#N)c(NN)o1` [Compound 52], the 50% inhibitory concentration (IC50) was > 50 µM.
On the same count and under the same terms, with `NNc1nc(CO)cs1` [Compound 53] the figure was 10 to 50 µM; with `Cc1nc(NN)sc1C(=O)O` [Compound 54], 10 to 50 µM; with `Cn1nnnc1NN` [Compound 55], > 50 µM.
The same measure, in the same setting: then `NN(CCO)c1nnn[nH]1` [Compound 56], with > 50 µM.
Same read-out and setting: with `CCOC(=O)c1sc(NN)nc1C` [Compound 57] the figure was 10 to 50 µM; with `Cn1cnnc1NN` [Compound 58], > 50 µM.
In the case of `N#Cc1ncoc1NN` [Compound 59], the IC50 was > 50 µM.
With `CCCN(N)c1nnn[nH]1` [Compound 60], the IC50 was > 50 µM.
Same read-out and setting: then `NN(c1nnn[nH]1)C1CC1` [Compound 61], with > 50 µM; and `CCN(N)c1nnn[nH]1` [Compound 63], with > 50 µM.
For the compound `CN(N)c1nnn[nH]1` [Compound 64], the IC50 is < 10 µM.
Still for that read-out and setting: then `CN(N)c1nnnn1Cc1ccccc1` [Compound 65], with > 50 µM; and `NNc1nnc[nH]1` [Compound 66], with < 10 µM; and `NNc1nnn[nH]1` [Compound 67], with < 10 µM.

A further experiment has as its target T1, wild type ALAS2. As to the kind of experiment: General IC50 assay, version 2 (2 ug/mL ALAS2), ALA by mass spectrometry. Type of experiment: biochemical. Particulars: version 2 assay: 2 ug/mL ALAS2, 0 uM PLP, 2 h reaction, read-out: IC50 (uM) ALAS2 v2. The method, then:
as §1, §2, §3, §4, §5
As to `NNc1nc(-c2ccnc3ccccc23)no1` [Compound 1], the IC50 was < 10 µM.
On the same count and under the same terms, with `NNc1nc(-c2ccc3ccccc3c2)no1` [Compound 2] the figure was < 10 µM; with `NNc1nc(-c2cccc(C(F)(F)F)c2)no1` [Compound 3], > 50 µM; with `NNc1nc(-c2ccc(C(F)(F)F)cc2)no1` [Compound 4], 10 to 50 µM.
Still for that read-out and setting: with `COc1ccc(-c2noc(NN)n2)cc1` [Compound 5] the figure was 10 to 50 µM.
